Where a name gives a salt, the structure may show the parent alone. Read-outs that look alike come from different tables or passages of the source.
Tests used:
[1] = Percent complex determination, samarium complexes (Sephadex C-25 cation exchange); assay type: physicochemical; conditions: for % Complex (10:1), Sm / % Complex, Sm: samarium; for % Complex (10:1), Sm: ligand/metal 10:1; for % Complex, Sm: ligand/metal ratio about 50:1 (** footnote)
Description: (§1) A disposable 10 ml plastic (Biorad) column was filled with 1 to 2 ml of water-swelled Sephadex™ C-25 cation exchange resin. The water was pressure eluted to the top of the resin. Fifteen μl of the complex (or more if counts were low) were added to the top of the resin. This was followed by 2 ml of 4:1 (V:V) isotonic saline:conc. ammonium hydroxide solution as an eluent which was allowed to drip into a counting tube. This was also pressure eluted to the top of the resin. An additional 2 ml of the eluent were added and the column pressure eluted to remove all liquid. The dried resin was then placed in a third counting tube and the three tubes counted on a NaI well counter using a Canberra multichannel analyzer linked to a computer. The percent complex was determined by dividing the number of counts in the two elutions by the total counts in the elutions plus the column, all times 100.
Percent complex determination was made in the same manner as for the yttrium complex.

[2] = In vivo biodistribution of chelates in rats (% dose in organs); conditions: rat, 2 hours after i.v. injection
[3] = Inertness of samarium complex versus pH; assay type: physicochemical; conditions: Sm
Description: as §1, with “100. By this method, uncomplexed yttrium was retained on the column.” for “100.”
(§2) One portion was treated with 1-2 μl portions of 0.1N hydrochloric acid until the pH was lowered and the other portion was treated with 0.1N sodium hydroxide to bring the pH up. The complexes were allowed to set for 5-10 minutes at each pH change, then they were sampled to determine the percent complexation at that pH by the method described for Examples 16 through 33.
as §2, with “of 1.0N” for “of 0.1N”, “with 0.1N, 1.0N and 50 weight %” for “with 0.1N”, “for about 5” for “for 5-10”

[4] = Complex study: percent yttrium complex after addition of excess metal (lability); assay type: physicochemical
Description: as §1, with “100. By this method, uncomplexed yttrium was retained on the column.” for “100.”
The 1:1 complex of yttrium with 1-(p-aminobenzyl)diethylenetriaminepentaacetic acid (ABDTPA), a well known bifunctional chelant used in the literature, and with the ligand of Example 2 (Now Ex. XVI) and Example 12 (now Ex. XVII) were prepared using the techniques described earlier. Several 100 microliter aliquots were then withdrawn into separate centrifuge tubes. Excess metal was added such that the total volume change is minimized and the time noted. One-half hour after metal addition, the percent complex was determined by the Sephadex™ C-25 method and this was compared to the original amount of complex. The percent complex versus added metal gives an indication as to the lability of the ligand-metal complex. Results are given below and are compared to the EDTA-yttrium complex.

[5] = complexes with Sc-46, Y-91, La-140 and Sm-153; chelant to metal 5:1; cited from earlier work
[6] = Percent complex determination, yttrium complexes (Sephadex C-25 cation exchange); assay type: physicochemical; conditions: for % Complex (10:1), Y: ligand/metal 10:1, pH 7.4
Description: Complexes were made by preparing a 0.0003M yttrium solution in water. (YCl3.6H2 O, 303.26 g/mole; Y(OAc)3, 12.1% H2 O). Radioactive YCl3 (Oakridge National Laboratories) was added to give the desired number of counts. Ten μl of ligand solution (at 0.03M) were added to 990 μl of the Y solution, giving a ligand-to-metal ratio of 1:1. (Ten times the amount of ligand solution was used for a 10:1 ligand to metal ratio.) The pH was then adjusted to 7.4 using microliter quantities of hydrochloric acid or sodium hydroxide. The solution was then tested for the amount of complexed yttrium using the cation exchange method given below.
as §1, with “100. By this method, uncomplexed yttrium was retained on the column.” for “100.”

[7] = rat, in vivo, 120 min; for % Injected Dose in Liver: iv
[8] = patients with metastatic bone lesions; cited from earlier work
[9] = metal/ligand molar ratio 500, one-half hour after metal addition
[10] = Sm complex, ligand/metal about 300:1 (Examples D and E)

2-[(2-[(2-[(2-{[BIS(CARBOXYMETHYL)]AMINO}ETHYL)(CARBOXYMETHYL)AMINO]ETHYL)(CARBOXYMETHYL)AMINO]ETHYL)(CARBOXYMETHYL)AMINO]-2-[5-ACETAMIDO-2-(CARBOXYMETHYLOXY)PHENYL]ETHANOIC ACID AND 2[(2-[(2-{[BIS(CARBOXYMETHYL)]AMINO}ETHYL)(CARBOXY-METHYL)AMINO]ETHYL)(2-{[BIS(CARBOXYMETHYL)]AMINO}-ETHYL)AMINO]-2-[5-ACETAMIDO-2-(CARBOXYMETHYLOXY)PHENYL]-ETHANOIC ACID [Example 9]
% Complex (10:1), Sm [1]: > 99% | % Injected Dose in Liver ([2]; Sm complex, ligand/metal 10:1): 2.8%

2-[BIS(2-{[(BIS(CARBOXYMETHYL)]AMINO}ETHYL)AMINO]-2-[5-AMINO-2-(CARBOXYMETHYLOXY)PHENYL]ETHANOIC ACID AND 2-[{2-[(2-{[BIS(CARBOXYMETHYL)]AMINO}ETHYL)(CARBOXYMETHYL)AMINO]ETHYL}(CARBOXYMETHYL)AMINO]-2-[5-AMINO-2-(CARBOXYMETHYLOXY)-PHENYL]ETHANOIC ACID [Example 7]
percent Sm complexed ([1]; as prepared, pH adjusted to about 7.5): 100% | % Complex, Sm [1]: 96% | % Complexed ([3]; pH 1, 5-10 minutes): 98% | % Complexed ([3]; pH 2, 5-10 minutes): 100% | % Complexed ([3]; pH 3, 5-10 minutes): 100% | % Complexed ([3]; pH 4, 5-10 minutes): 100% | % Complexed ([3]; pH 5, 5-10 minutes): 100% | % Complexed ([3]; pH 7, 5-10 minutes): 100% | % Complexed ([3]; pH 9, 5-10 minutes): 100% | % Complexed ([3]; pH 11, 5-10 minutes): 100% | % Complexed ([3]; pH 13, 5-10 minutes): 100%

2-[bis(2-{[(bis(carboxymethyl)]amino}ethyl)amino]-2-[5-acetamido-2-(carboxymethyloxy)phenyl]ethanoic acid and 2-[{2-[(2-{[bis(carboxymethyl)]amino}ethyl)(carboxymethyl)amino]ethyl}(carboxymethyl)amino]-2-[5-acetamido-2-(carboxymethyloxy)-phenyl]ethanoic acid [Example 6]
% Complex (10:1), Sm [1]: > 99% | % Injected Dose in Liver ([2]; Sm complex, ligand/metal 10:1): 0.38%

O=C(O)CN(CCN(CC(=O)O)CC(=O)O)CC(=O)O [EDTA, ethylenediaminetetraacetic acid]
% Complex ([4]; metal/ligand molar ratio 250, one-half hour after metal addition): 48% | % Complex [4, 9]: 16% | organ distribution of radioactivity [5]: high concentrations of radioactivity were observed in the liver, spleen, kidney, lung and bone | % Injected Dose in Liver ([2]; Sm complex, ligand/metal 5:1): 8.4% | % Injected Dose in Liver [2, 10]: 4.4%

CC(=O)Nc1ccc(O)c(C(NCCN(CC(=O)O)CC(=O)O)C(=O)O)c1 (stereo not drawn) [Example 1, 2-[(2-{[bis(carboxymethyl)]amino}ethyl)amino]-2-(5-acetamido-2-hydroxyphenyl)ethanoic acid]
% Complex (10:1), Y [6]: 98% | % dose in the blood [7]: 0.57% | % dose in the bone [7]: 56.1% | % dose in the muscle [7]: 0.78% | % dose in the spleen [7]: 0.03% | % Injected Dose in Liver [7]: 0.87%

CC(=O)Nc1ccc(OCC(=O)O)c(C(C(=O)O)N(CCN(CC(=O)O)CC(=O)O)CC(=O)O)c1 (stereo not drawn) [Example 2, 2-[(2-{[bis(carboxymethyl)]amino}ethyl)(carboxymethyl)amino]-2-[5-acetamido-2-(carboxymethyloxy)phenyl]ethanoic acid]
% Complex (10:1), Y [6]: > 99% | % Complex (10:1), Sm [1]: > 99% | % Complex [4, 9]: 75% | % Injected Dose in Liver [7]: 0.22%

Nc1ccc(OCC(=O)O)c(C(C(=O)O)N(CCN(CC(=O)O)CC(=O)O)CC(=O)O)c1 (stereo not drawn) [Example 3, 2-[(2-{[BIS(CARBOXYMETHYL)]AMINO}ETHYL)(CARBOXYMETHYL)AMINO]-2-[5-AMINO-2- (CARBOXYMETHLOXY)PHENYL]ETHANOIC ACID, PENTA SODIUM SALT]
% Complex (10:1), Y [6]: > 99% | % Injected Dose in Liver [7]: 0.22%

CC(=O)Nc1ccc(O)c(C(C(=O)O)N(CC#N)CCN(CC(=O)O)CC(=O)O)c1 (stereo not drawn) [Example 4, 2-[(2-{[bis(carboxymethyl)]amino}ethyl)(cyanomethyl)amino]-2-(5-acetamido-2-hydroxyphenyl)ethanoic acid]
% Complex (10:1), Y [6]: > 99% | % Injected Dose in Liver [7]: 1.4%

Nc1ccc(O)c(C(C(=O)O)N(CCN(CC(=O)O)CC(=O)O)CC(=O)O)c1 (stereo not drawn) [Example 5, 2-[(2-{[BIS(CARBOXYMETHYL)]AMINO}ETHYL)(CARBOXYMETHYL)AMINO]-2-(5-AMINO-2- HYDROXYPHENYL)ETHANOIC ACID]
% Complex (10:1), Y [6]: 99% | % Injected Dose in Liver [7]: 0.38%

Nc1ccc(OCC(=O)O)c(C(C(=O)O)N(CCN(CCN(CC(=O)O)CC(=O)O)CC(=O)O)CC(=O)O)c1 (stereo not drawn) [Example 8, 2-[{2-[(2-{[BIS(CARBOXYMETHYL)]-AMINO}ETHYL)(CARBOXYMETHYL)AMINO]ETHYL}(CARBOXYMETHYL)AMINO]-2-[5-AMINO-2-(CARBOXYMETHYLOXY)PHENYL]ETHANOIC ACID]
percent complexation, Sm ([1]; as prepared, pH adjusted to about 7): 96% | % Complex, Sm [1]: > 99% | % Complexed ([3]; pH 1, about 5 minutes): 91% | % Complexed ([3]; pH 2, about 5 minutes): 88% | % Complexed ([3]; pH 3, about 5 minutes): 92% | % Complexed ([3]; pH 5, about 5 minutes): 96% | % Complexed ([3]; pH 7, about 5 minutes): 96% | % Complexed ([3]; pH 9, about 5 minutes): 99% | % Complexed ([3]; pH 12, about 5 minutes): 98% | % Complexed ([3]; pH 13, about 5 minutes): 99%

CC(=O)Nc1cc(CN(CCN(CC(=O)O)CC(=O)O)CC(=O)O)c(O)c(CN(CCN(CC(=O)O)CC(=O)O)CC(=O)O)c1 [Example 11]
% Complex (10:1), Y [6]: 99% | % Complex, Y ([6]; ligand/metal ratio about 1:1 (* footnote)): 98%

CC(=O)Nc1cc(CN(CCN(CC(=O)O)CC(=O)O)CC(=O)O)c(O)c(CN(CC(=O)O)CC(=O)O)c1 [Example 15, 2-({[BIS(CARBOXYMETHYL)]AMINO}METHYL)-6-{[({[BIS(CARBOXYMETHYL)]AMINO}ETHYL)(CARBOXYMETHYL)AMINO]METHYL}-4-(ACETAMIDO)PHENOL]
% Complex (10:1), Y [6]: 99% | % Injected Dose in Liver [7]: 0.37%

CC(=O)Nc1ccc(O)c(CN(CCN(CC(=O)O)Cc2cc(NC(C)=O)ccc2O)CC(=O)O)c1 [Example U, N,N'-DI(2-HYDROXY, 5-ACETAMIDOBENZYL)ETHYLENEDIAMINE-N,N'-DIACETIC ACID, reference compound]
% Injected Dose in Liver ([2]; Sm complex, comparative, ligand/metal ratio not stated): 12%

Nc1ccc(O)c(C(NCCNC(C(=O)O)c2cc(N)ccc2O)C(=O)O)c1 (stereo not drawn) [Example X, ethylenediaminedi(2-hydroxy-5-aminophenyl)acetic acid, reference compound]
% Injected Dose in Liver [7]: 24%

O=C(O)CN(CC(=O)O)CC(=O)O [NTA, nitrilotri-acetic acid, reference compound]
organ distribution of radioactivity [5]: high concentrations of radioactivity were observed in the liver, spleen, kidney, lung and bone | % Injected Dose in Liver [2, 10]: 8.6%

[Cl][Sm]([Cl])[Cl] [SmCl3, samarium chloride, reference compound]
% Injected Dose in Liver ([2]; samarium chloride in unchelated form): 39%

[89Sr] [Strontium-89]
blood levels [8]: high blood levels | lesion to normal bone ratios [8]: low lesion to normal bone ratios

— patent US5696239A (The Dow Chemical Company, priority 1995, dated 1997)
